Laboratory results: US20080221213A1, “Tablets Comprising a High Load of Strontium” (OSTEOLOGIX A/S SYMBION SCIENCE PARK, priority 2005, published 2008)

Assay: Single oral dose pharmacokinetic study in humans (healthy male volunteers), serum strontium by ICP-MS
Conditions: by inverse regression on the dose-AUC model; 95% CI [1.073, 1.115]

O=C([O-])CC(=O)[O-].[Sr+2] [strontium malonate]
Bioequivalent dose to 2.0 g strontium ranelate (Protelos) in terms of AUC5 week: 1.09 g
